Assay results reported in patent US10792272B2, “Methods for treatment of Clostridium difficile infections” (priority 2016, dated 2020).
In brackets after ≈: the same amount, converted by molar mass.

Assays:
[1] = test system: C. difficile 4118 (CD4118, ATCC BAA-1870, BI/NAP1/027); assay: MIC by broth microdilution against C. difficile 4118; assay type: cell-based, Clostridium difficile; settings: Table 1, strain 4118, 20-24 h, 37° C.; for MIC: Clostridioides difficile, ATCCBAA1870, read-out: MIC C. difficile 4118
[2] = test system: C. difficile strains 630 (CD630) and 4118 (CD4118); assay: MIC / growth inhibition against C. difficile, covering both strains; assay type: cell-based, Clostridium difficile
[3] = test system: C. difficile 630 (CD630, ATCC BAA-1382); assay: MIC by broth microdilution against C. difficile 630; assay type: cell-based, Clostridium difficile; settings: Table 1, strain 630, 20-24 h, 37° C.; for MIC: Clostridioides difficile, ATCCBAA1382
[4] = test system: P. aeruginosa PAO1; assay: MIC against aerobic bacteria; assay type: cell-based, Pseudomonas aeruginosa; settings: aerobic
[5] = test system: S. epidermidis 1457; assay: MIC against aerobic bacteria; assay type: cell-based; settings: aerobic
[6] = test system: P. nigrescens ATCC 33563; assay: MIC against anaerobic bacteria; assay type: cell-based, Prevotella nigrescens; settings: anaerobic
[7] = test system: B. subtilis ATCC 6051; assay: MIC against aerobic bacteria; assay type: cell-based, Bacillus subtilis; settings: aerobic
[8] = test system: A. baumannii M2; assay: MIC against aerobic bacteria; assay type: cell-based; settings: aerobic
[9] = test system: B. thetaiotaomicron ATCC 29148; assay: microbe, parasite or virus in culture; assay type: cell-based; settings: for MIC B. thetaiotaomicron ATCC 29148: anaerobic
[10] = test system: C. clostridioforme ATCC 25537; assay: MIC against anaerobic bacteria; assay type: cell-based, Clostridium clostridioforme; settings: anaerobic
[11] = test system: panel of aerobic and anaerobic organisms; assay type: cell-based
[12] = test system: S. aureus RN4220; assay: MIC against aerobic bacteria; assay type: cell-based; settings: aerobic; for MIC: Staphylococcus aureus, RN4220, read-out: MIC S. aureus RN4220
[13] = test system: C. sporogenes ATCC 15579; assay: microbe, parasite or virus in culture; assay type: cell-based, Clostridium sporogenes; settings: for MIC: Clostridium sporogenes, ATCC15579, read-out: MIC C. sporogenes ATCC 15579
[14] = test system: P. distasonis ATCC 8503; assay: MIC against anaerobic bacteria; assay type: cell-based, Parabacteroides distasonis; settings: anaerobic
[15] = test system: Clostridium difficile strain 4118; assay: Minimum bactericidal concentration (MBC), logarithmic- and stationary-phase cells; assay type: cell-based; settings: stationary-phase cells of strain 4118; 3-log reduction of inoculum
Experimental: The MBClog values of the protonophores were determined to be 0.25-2 μg/mL (˜4 to 8-fold greater than their respective MIC values).
Clostridium difficile strain 4118 was grown to OD600˜0.4-0.5 (logarithmic phase) or for 24 h (stationary phase), and thereafter added to two-fold serial dilutions of test compounds. Cultures were incubated for 20-24 h at 37° C., and then viable counts were enumerated on BHIS agar plates. […] MBC measurements were performed in duplicate.

Structure (SMILES): O=C(Nc1ccc(Oc2ccccc2)cc1)c1cc(I)cc(I)c1O [Compound 5a]
- MIC C. difficile 4118 [1]: 1 µg/mL (≈ 1.79 µM)
- growth inhibitory activity against CD630 and CD4118 (in words) [2]: high in vitro potency
- MIC C. difficile 630 [3]: 0.5 µg/mL (≈ 0.897 µM)

Structure (SMILES): COc1c(I)cc(I)cc1C(=O)Nc1ccc(Oc2ccccc2)cc1 [Compound 5b]
- MIC C. difficile 4118 [1]: >32 µg/mL
- growth inhibitory activity against CD630 and CD4118 (in words) [2]: inactive
- MIC C. difficile 630 [3]: >32 µg/mL

Structure (SMILES): O=C(Nc1ccc(Oc2ccccc2)cc1)c1cc(I)cc(I)c1 [Compound 5c]
- MIC C. difficile 4118 [1]: >32 µg/mL
- growth inhibitory activity against CD630 and CD4118 (in words) [2]: inactive
- MIC C. difficile 630 [3]: >32 µg/mL

Structure (SMILES): CN(C(=O)c1cc(I)cc(I)c1O)c1ccc(Oc2ccccc2)cc1 [Compound 5d]
- MIC C. difficile 4118 [1]: >32 µg/mL
- growth inhibitory activity against CD630 and CD4118 (in words) [2]: inactive
- MIC C. difficile 630 [3]: >32 µg/mL

Structure (SMILES): O=C(Nc1ccc(Oc2ccc(F)cc2)cc1)c1cc(I)cc(I)c1O [Compound 5e]
- MIC C. difficile 4118 [1]: 0.13 µg/mL (≈ 0.226 µM)
- growth inhibitory activity against CD630 and CD4118 (in words) [2]: high in vitro potency
- MIC C. difficile 630 [3]: 0.13 µg/mL (≈ 0.226 µM)

Structure (SMILES): Cc1ccc(Oc2ccc(NC(=O)c3cc(I)cc(I)c3O)cc2)cc1 [Compound 5f]
- MIC C. difficile 4118 [1]: 0.25 µg/mL (≈ 0.438 µM)
- growth inhibitory activity against CD630 and CD4118 (in words) [2]: high in vitro potency
- MIC C. difficile 630 [3]: 0.13 µg/mL (≈ 0.228 µM)

Structure (SMILES): O=C(Nc1ccc(Oc2ccc(Cl)cc2)cc1)c1cc(I)cc(I)c1O [Compound 5g]
- MIC C. difficile 4118 [1]: 0.25 µg/mL (≈ 0.423 µM)
- growth inhibitory activity against CD630 and CD4118 (in words) [2]: high in vitro potency
- MIC C. difficile 630 [3]: 0.13 µg/mL (≈ 0.22 µM)

Structure (SMILES): COc1c(I)cc(I)cc1C(=O)Nc1ccc(Oc2ccc(Cl)cc2)cc1 [Compound 5h]
- MIC C. difficile 4118 [1]: >32 µg/mL
- growth inhibitory activity against CD630 and CD4118 (in words) [2]: inactive
- MIC C. difficile 630 [3]: >32 µg/mL

Structure (SMILES): O=C(Nc1ccc(Oc2ccc(Cl)cc2)cc1)c1cc(I)cc(I)c1 [Compound 5i]
- MIC P. aeruginosa PAO1 [4]: >32 µg/mL
- MIC C. difficile 4118 [1]: >32 µg/mL
- MIC S. epidermidis 1457 [5]: >32 µg/mL
- MIC P. nigrescens ATCC 33563 [6]: >32 µg/mL
- MIC B. subtilis ATCC 6051 [7]: >32 µg/mL
- MIC A. baumannii M2 [8]: >32 µg/mL
- MIC B. thetaiotaomicron ATCC 29148 [9]: >32 µg/mL
- MIC C. clostridioforme ATCC 25537 [10]: >32 µg/mL
- growth inhibitory activity against CD630 and CD4118 (in words) [2]: inactive
- antibacterial spectrum (in words) [11]: lacked antibacterial activity
- MIC S. aureus RN4220 [12]: >32 µg/mL
- MIC C. difficile 630 [3]: >32 µg/mL
- MIC C. sporogenes ATCC 15579 [13]: >32 µg/mL
- MIC P. distasonis ATCC 8503 [14]: >32 µg/mL

Structure (SMILES): O=C(Nc1ccc2ccccc2c1)c1cc(I)cc(I)c1O [Compound 6a]
- MIC P. aeruginosa PAO1 [4]: >32 µg/mL
- MIC C. difficile 4118 [1]: 0.5 µg/mL (≈ 0.971 µM)
- MIC S. epidermidis 1457 [5]: 0.06 µg/mL (≈ 0.116 µM)
- MIC P. nigrescens ATCC 33563 [6]: 8 µg/mL (≈ 15.5 µM)
- MIC B. subtilis ATCC 6051 [7]: 0.06 µg/mL (≈ 0.116 µM)
- MIC A. baumannii M2 [8]: >32 µg/mL
- MIC B. thetaiotaomicron ATCC 29148 [9]: >32 µg/mL
- MIC C. clostridioforme ATCC 25537 [10]: 4 µg/mL (≈ 7.77 µM)
- growth inhibitory activity against CD630 and CD4118 (in words) [2]: high in vitro potency
- MIC S. aureus RN4220 [12]: 0.25 µg/mL (≈ 0.485 µM)
- MIC C. difficile 630 [3]: 0.5 µg/mL (≈ 0.971 µM)
- MIC C. sporogenes ATCC 15579 [13]: 8 µg/mL (≈ 15.5 µM)
- MIC P. distasonis ATCC 8503 [14]: 16 µg/mL (≈ 31.1 µM)

Structure (SMILES): COc1c(I)cc(I)cc1C(=O)Nc1ccc2ccccc2c1 [Compound 6b]
- MIC C. difficile 4118 [1]: >32 µg/mL
- growth inhibitory activity against CD630 and CD4118 (in words) [2]: inactive
- MIC C. difficile 630 [3]: >32 µg/mL

Structure (SMILES): O=C(Nc1ccc2ccccc2c1)c1cc(I)cc(I)c1 [Compound 6c]
- MIC C. difficile 4118 [1]: >32 µg/mL
- growth inhibitory activity against CD630 and CD4118 (in words) [2]: inactive
- MIC C. difficile 630 [3]: >32 µg/mL

Structure (SMILES): O=C(Nc1ccc(-c2ccccc2)cc1)c1cc(I)cc(I)c1O [Compound 7a]
- MIC C. difficile 4118 [1]: 1 µg/mL (≈ 1.85 µM)
- MIC C. difficile 630 [3]: 0.5 µg/mL (≈ 0.924 µM)

Structure (SMILES): O=C(Nc1ccc(Cl)cc1)c1cc(I)cc(I)c1O [Compound 7b]
- MIC P. aeruginosa PAO1 [4]: >32 µg/mL
- MIC C. difficile 4118 [1]: 0.5 µg/mL (≈ 1 µM)
- MIC S. epidermidis 1457 [5]: ≤0.03 µg/mL
- MIC P. nigrescens ATCC 33563 [6]: 4 µg/mL (≈ 8.01 µM)
- MIC B. subtilis ATCC 6051 [7]: 0.06 µg/mL (≈ 0.12 µM)
- MIC A. baumannii M2 [8]: 32 µg/mL (≈ 64.1 µM)
- MIC B. thetaiotaomicron ATCC 29148 [9]: >32 µg/mL
- MIC C. clostridioforme ATCC 25537 [10]: 16 µg/mL (≈ 32 µM)
- MIC S. aureus RN4220 [12]: 0.06 µg/mL (≈ 0.12 µM)
- MIC C. difficile 630 [3]: 0.25 µg/mL (≈ 0.501 µM)
- MIC C. sporogenes ATCC 15579 [13]: 16 µg/mL (≈ 32 µM)
- MIC P. distasonis ATCC 8503 [14]: 8 µg/mL (≈ 16 µM)

Structure (SMILES): O=C(Nc1ccccc1Cl)c1cc(I)cc(I)c1O [Compound 7c]
- MIC C. difficile 4118 [1]: 8 µg/mL (≈ 16 µM)
- MIC against C. difficile ([2]; one statement covering CD630 and CD4118): 8 µg/mL (≈ 16 µM)
- MIC C. difficile 630 [3]: 8 µg/mL (≈ 16 µM)

Structure (SMILES): O=C(Nc1ccc(I)cc1)c1cc(I)cc(I)c1O [Compound 7d]
- MIC C. difficile 4118 [1]: 0.25 µg/mL (≈ 0.423 µM)
- MIC C. difficile 630 [3]: 0.13 µg/mL (≈ 0.22 µM)

Structure (SMILES): O=C(Nc1ccc(Oc2ccc(Cl)cc2)cc1)c1cc(Cl)cc(Cl)c1O [Compound 8, 3,5-Dichloro-N-(4-(4-chlorophenoxy)phenyl)-2-hydroxybenzamide]
- MIC [1]: 0.06 µg/mL (≈ 0.147 µM)
- MIC ([2]; Clostridioides difficile, one statement covering CD630 and CD4118, read-out: MIC against C. difficile): ≤ 0.13 µg/mL
- enhancement of potency relative to 5g and metronidazole ([2]; MIC ratio, Table 1): 4 fold
- improvement of activity over vancomycin ([2]; MIC ratio, Table 1): ~32 fold
- MIC [12]: 0.13 µg/mL (≈ 0.318 µM)
- MIC [3]: ≤ 0.03 µg/mL
- MIC [13]: 4 µg/mL (≈ 9.79 µM)

Structure (SMILES): Cc1ncc([N+](=O)[O-])n1CCO [Metronidazole, metronidazole, reference compound]
- MIC [1]: 0.25 µg/mL (≈ 1.46 µM)
- MBCstat [15]: >32 µg/mL
- MIC ([9]; Bacteroides thetaiotaomicron, ATCC29148, read-out: MIC B. thetaiotaomicron ATCC 29148): 1 µg/mL (≈ 5.84 µM)
- antibacterial spectrum (in words) [11]: mainly targeted anaerobic bacteria
- MIC [12]: > 32 µg/mL
- MIC [3]: 0.25 µg/mL (≈ 1.46 µM)
- MIC [13]: 0.25 µg/mL (≈ 1.46 µM)
